The results in this text go back to patent US5556853A, “Epoxysuccinic acid derivatives” (Takeda Chemical Industries, Ltd., priority 1993, dated 1996).

Structures are written as SMILES. Where a name gives a salt, the structure may show the parent alone.

In one data set the test system is mice. Briefly: Toxicity Study. It is filed as in vivo. Particulars: intraperitoneally or orally administered at 400 mg/kg. The protocol: TAN-1756A caused no death in mice when it was intraperitoneally or orally administered at 400 mg/kg.
TAN-1803 monohydrochloride caused no death in mice when it was intraperitoneally or orally administered at 400 mg/kg.

The subject of data set [1] is bone resorption as enhanced by PTH (parathyroid hormone) in femurs from female BALB/c mice. Kind of data set: Determination of Bone Resorption Suppressive Activity (PTH-enhanced, calcium release from cultured femurs). It is filed as cell-based. The settings on record: 168 h; test compound 10 μg/ml, PTH 1 μM, 7 days, mouse femurs. As for the experimental part:
Compounds (I), (XI) and (XXI) or salts thereof excellently suppress bone resorption. Their suppressive action against bone resorption as enhanced by PTH (parathyroid hormone) was determined by the method described below.
Femurs were aseptically isolated from female BALB/c mice at 8-10 weeks of age. After the bone marrow cavity was washed with a Ham F12 medium containing 10% (w/w) thermally inactivated fetal calf serum, 100 unit/ml penicillin G and 100 unit/ml streptomycin (hereinafter referred to as culture broth), each femur was added to 1 ml of the culture broth and precultured for 3 hours at 37° C. in the presence of 5% carbon dioxide and 95% air. Each bone was transferred to 1 ml of the culture broth supplemented with PTH (produced by Peptide Institute, Inc., final concentration 1 μM) and the test compound (final concentration 10 μg/ml) and cultured for 7 more days, after which the total calcium content in the culture broth was determined using Calcium E-Test Wako (produced by Wako Pure Chemical Industries). The bone resorption suppressive activity of the test compound was calculated using the following equation:
Bone resorption suppressive activity (%)=100×(Cp-Cs)/(Cp-Cc)
Cc: Total calcium content in the culture broth containing neither PTH nor test compound
Cp: Total calcium content in the culture broth containing PTH […]

In a further data set the target is T1, cathepsin B (Homo sapiens, UniProt P07858).
T1 construct: purchased Sigma
Briefly: Determination of Cathepsin B Inhibitory Activity. It is filed as biochemical. The settings on record: cathepsin B (Sigma), Z-Phe-Arg-7MCA substrate, pH 5.5, 37° C., 20 minutes; read-out: Inhibitory activity potency IC50 Cathepsin B (converted). The protocol:
To 75 μl of a reaction mixture containing 30 ng of cathepsin B (produced by Sigma), 2 μM DTT, 1 mM ethylenediaminetetraacetate disodium salt, 0.1M sodium acetate buffer (pH 5.5) and various concentrations of sample, 25 μl of 20 μM Z-Phe-Arg-7MCA was added to initiate the reaction. After reaction mixture incubation at 37° C. for 20 minutes, 100 μl of a reaction stopper solution containing 100 mM sodium monochloroacetate was added. The amount of liberated 4-methyl-7-aminocoumarin was determined at an excitation wavelength of 365 nm and a fluorescence wavelength of 450 nm, using a fluorophotometer. The sample concentration required to cause 50% inhibition was expressed as the IC50 value, with the fluorescence value obtained from the same reaction in the absence of the sample taken as 100%.

Data set [2] has as its target T2, human recombinant cathepsin L (Homo sapiens, UniProt P07711).
T2 construct: made in house; host or cells: mouse myeloma Sp2/0 cells transformed with pTBN-HCLneo (Sp-HCL26), secreted into the culture supernatant
Briefly: Determination of Cathepsin L Inhibitory Activity. The data set is classed as biochemical. Particulars: Z-Phe-Arg-7MCA substrate, pH 5.5, 37° C., 20 minutes, read-out: Inhibitory activity potency IC50 Cathepsin L (converted). The protocol: To 75 μl of a reaction mixture containing 1 ng of human recombinant cathepsin L (as produced in Reference Examples 1 through 7 below), 2 μM dithiothreitol (hereinafter referred to as DTT), 1 mM ethylenediaminetetraacetate disodium salt, 0.1M sodium acetate buffer (pH 5.5) and various concentrations of sample, 25 μl of 20 μM benzyloxycarbonyl-L-phenylalanyl-L-arginine-4-methylcoumaryl-7-amide (hereinafter referred to as Z-Phe-Arg-7MCA, produced by Peptide Institute, Inc.) was added to initiate the reaction. After incubation at 37° C. for 20 minutes, 100 μl of a reaction stopper solution containing 100 mM sodium monochloroacetate was added. The amount of liberated 4-methyl-7-aminocoumarin was determined at an excitation wavelength of 365 nm and a fluorescence wavelength of 450 nm, using a fluorophotometer (FCA; produced by Baxter). The sample concentration required to cause 50% inhibition was expressed as the IC50 value, with the fluorescence value obtained from the same reaction in the absence of the sample taken as 100%.

T2 sequence (P07711 114-333): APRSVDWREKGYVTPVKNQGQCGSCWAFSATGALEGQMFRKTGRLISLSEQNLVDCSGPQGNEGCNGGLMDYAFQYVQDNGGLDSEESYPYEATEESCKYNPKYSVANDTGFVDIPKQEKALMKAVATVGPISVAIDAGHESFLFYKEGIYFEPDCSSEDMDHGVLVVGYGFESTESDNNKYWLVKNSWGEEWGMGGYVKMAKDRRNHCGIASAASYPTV

For the compound `NCCCCNC(=O)[C@H](Cc1ccccc1)NC(=O)[C@H]1O[C@@H]1C(=O)O` [Compound 1, N-{N-[(2S,3S)-3-trans-carboxyoxirane-2-carbonyl]-L-phenylalanyl}-1,4-diaminobutane], the death in mice entry in the data set with mice is given as “no death”. For the same compound, the activity at 10 µg/mL in data set [1] stood at 150%.

A word on the IC50: it is the concentration at which inhibition is half-maximal. In the case of `NCCCCCCCCNC(=O)[C@H](Cc1ccccc1)NC(=O)[C@H]1O[C@@H]1C(=O)O` [Compound 23, N-(N-[(2S,3S)-3-trans-carboxyoxirane-2-carbonyl]-L-phenylalanyl}-1,8-diaminooctane], the IC50 on cathepsin B is 59.2 nM; in data set [2] it was 4.93 nM.

Regarding `O=C(NCCCCNC(=O)[C@H](Cc1ccccc1F)NC(=O)[C@H]1O[C@@H]1C(=O)O)OCc1ccccc1` [Compound 37], the results for the IC50 (at cathepsin B; in data set [2]) were 27.9 nM and 1.99 nM, respectively.

In the case of `O=C(O)[C@H]1O[C@@H]1C(=O)N[C@@H](Cc1ccc2ccccc2c1)C(=O)N1CCOCC1` [Compound 82, N-{N-[(2S,3S)-3-trans-carboxyoxirane-2-carbonyl]-3-(2-naphthyl)-L-alanyl}morpholine monosodium salt], the IC50 on cathepsin B is 85.3 nM; in data set [2], 5.02 nM.

For the compound `CC(C)C[C@H](NC(=O)[C@H]1O[C@@H]1C(=O)O)C(=O)N(CCCN)CCCCN` [Compound 92, N-{N-[(2S,3S)-3-trans-carboxyoxirane-2-carbonyl]-L-leucyl}-N-(3-aminopropyl)-1,4-diaminobutane], the death in mice entry in the data set with mice was “no death”. In addition, the activity at 10 µg/mL in data set [1] was determined as 149%.
